Experiments:
human eIF4E protein = molecular target: T1, human eIF4E protein (Homo sapiens, UniProt P06730); assay: Biochemical competitive binding assay (TR-FRET competition, EDA-m7GDP-ATTO-647N probe); conditions: read-out: hEIF4E TR-FRET IC50
T1 construct: purchased Novus NBP-45314
How it was run: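 IC50 values come from 4-parameter fits of the normalized 665/620 nm TR-FRET ratio. Compound was first incubated 15 min with 4 nM recombinant His-eIF4E bound to 2.5 nM Eu-anti-His antibody, then 15 min with 5 nM m7GDP-ATTO-647N tracer, in pH 7.5 HEPES buffer with 100 mM KCl, Tween-20 and BSA.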

[1] = tested on: COLO 205 colorectal tumor cells; assay: Tumor cell viability inhibition assay (CellTiter-Glo 2.0, 72 hours); type: cell-based; conditions: COLO 205 cell viability
How it was run: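 IC50 derived by 4-parameter fitting after normalizing luminescence to DMSO and max-inhibition wells. Compounds tested as 11 concentrations in 4-fold steps on COLO 205 cells seeded at 1500 per well in RPMI-1640/10% FBS; ATP content measured with CellTiter-Glo 2.0 after 72 h.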

T1 sequence (P06730 whole entry): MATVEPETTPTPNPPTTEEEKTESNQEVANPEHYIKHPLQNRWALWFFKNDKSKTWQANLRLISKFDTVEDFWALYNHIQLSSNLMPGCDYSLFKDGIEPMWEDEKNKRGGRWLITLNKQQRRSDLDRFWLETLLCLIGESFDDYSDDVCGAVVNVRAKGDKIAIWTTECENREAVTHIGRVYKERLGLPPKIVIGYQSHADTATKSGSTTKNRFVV

| IC50 (human eIF4E protein) [µM] | IC50 ([1]; Homo sapiens, COLO 205, 72 h) [µM] | IC50 [1] [µM] | SMILES |
| --- | --- | --- | --- |
| < 0.1 | 5 to 20 |  | Cc1cc(-c2cc(Cl)ccc2OCCn2c(C)nc3c(c2=O)C[C@@H](N2CCC4(CC2)COCCO4)CC3)c2scc(C(=O)O)c2n1 (single isomer, unassigned) [Compound 425] |
| < 0.1 | 5 to 20 |  | Cc1cc(-c2cc(Cl)ccc2OCCn2c(C)nc3c(c2=O)C[C@H](N2CCC(c4cnn(C)c4)CC2)CC3)c2scc(C(=O)O)c2n1 (single isomer, unassigned) [Compound 426] |
| < 0.1 | < 5 |  | Cc1cc(-c2cc(Cl)ccc2OCCn2c(C)nc3c(c2=O)C[C@@H](N2CCC(c4cnn(C)c4)CC2)CC3)c2scc(C(=O)O)c2n1 (single isomer, unassigned) [Compound 427] |
| < 0.1 | < 5 |  | Cc1csc(C2CCN([C@H]3CCc4nc(C)n(CCOc5ccc(Cl)cc5-c5cc(C)nc6c(C(=O)O)csc56)c(=O)c4C3)CC2)n1 (single isomer, unassigned) [Compound 428] |
| < 0.1 | < 5 |  | Cc1csc(C2CCN([C@@H]3CCc4nc(C)n(CCOc5ccc(Cl)cc5-c5cc(C)nc6c(C(=O)O)csc56)c(=O)c4C3)CC2)n1 (single isomer, unassigned) [Compound 429] |
| < 0.1 | < 5 |  | Cc1cc(-c2cc(Cl)ccc2OCCn2c(C)nc3c(c2=O)C[C@H](N2CCC4(CC2)NC(=O)NC4=O)CC3)c2scc(C(=O)O)c2n1 (single isomer, unassigned) [Compound 430] |
| < 0.1 | < 5 |  | Cc1cc(-c2cc(Cl)ccc2OCCn2c(C)nc3c(c2=O)C[C@@H](N2CCC4(CC2)NC(=O)NC4=O)CC3)c2scc(C(=O)O)c2n1 (single isomer, unassigned) [Compound 431] |
| < 0.1 | < 5 |  | Cc1cc(-c2cc(Cl)ccc2OCCn2c(C)nc3c(c2=O)CC(N2CCC(C(F)(F)F)CC2)CC3)c2scc(C(=O)NS(C)(=O)=O)c2n1 (single isomer, unassigned) [Compound 432] |
| < 0.1 |  | < 5 | Cc1cc(-c2cc(Cl)ccc2OCCn2c(C)nc3c(c2=O)CC(N2CCC(C(F)(F)F)CC2)CC3)c2scc(C(=O)NS(C)(=O)=O)c2n1 (single isomer, unassigned) [Compound 433] |
| < 0.1 | < 5 |  | Cc1cc(-c2cc(Cl)ccc2OCCn2c(C)nc3c(c2=O)C[C@H](N2CCC(O)CC2)CC3)c2scc(C(=O)O)c2n1 (single isomer, unassigned) [Compound 434] |
| < 0.1 | < 5 |  | Cc1cc(-c2cc(Cl)ccc2OCCn2c(C)nc3c(c2=O)C[C@@H](N2CCC(O)CC2)CC3)c2scc(C(=O)O)c2n1 (single isomer, unassigned) [Compound 435] |
| < 0.1 | < 5 |  | Cc1cc(-c2cc(Cl)ccc2OCCn2c(C)nc3c(c2=O)C[C@H](N2CCCC[C@@H]2C)CC3)c2scc(C(=O)O)c2n1 (single isomer, unassigned) [Compound 436] |
| < 0.1 | 5 to 20 |  | Cc1cc(-c2cc(Cl)ccc2OCCn2c(C)nc3c(c2=O)C[C@@H](N2CCCC[C@H]2C)CC3)c2scc(C(=O)O)c2n1 (single isomer, unassigned) [Compound 437] |
| < 0.1 | < 5 |  | Cc1cc(-c2cc(Cl)ccc2OCCn2c(C)nc3c(c2=O)C[C@H](N2CCC[C@]4(C2)CC4(F)F)CC3(C)C)c2scc(C(=O)O)c2n1 (single isomer, unassigned) [Compound 438] |
| < 0.1 | < 5 |  | Cc1cc(-c2cc(Cl)ccc2OCCn2c(C)nc3c(c2=O)C[C@H](N2CCC[C@@]4(C2)CC4(F)F)CC3(C)C)c2scc(C(=O)O)c2n1 (single isomer, unassigned) [Compound 439] |
| < 0.1 | 5 to 20 |  | Cc1cc(-c2cc(Cl)ccc2OCCn2c(C)nc3c(c2=O)C[C@@H](N2CCC[C@]4(C2)CC4(F)F)CC3(C)C)c2scc(C(=O)O)c2n1 (single isomer, unassigned) [Compound 440] |
| < 0.1 | 5 to 20 |  | Cc1cc(-c2cc(Cl)ccc2OCCn2c(C)nc3c(c2=O)C[C@@H](N2CCC[C@@]4(C2)CC4(F)F)CC3(C)C)c2scc(C(=O)O)c2n1 (single isomer, unassigned) [Compound 441] |
| < 0.1 | 5 to 20 |  | Cc1cc(-c2cc(Cl)ccc2OCCn2c(C)nc3c(c2=O)CC(N2CCC(OC(F)(F)F)CC2)CC3(C)C)c2scc(C(=O)O)c2n1 (single isomer, unassigned) [Compound 442, 7-(5-chloro-2-(2-(2,8,8-trimethyl-4-oxo-6-(4-(trifluoromethoxy)piperidin-1-yl)-5,6,7,8-tetrahydroquinazolin-3(4H)-yl)ethoxy)phenyl)-5-methylthieno[3,2-b]pyridine-3-carboxylic acid] |

| IC50 (human eIF4E protein) [µM] | IC50 ([1]; Homo sapiens, COLO 205, 72 h) [µM] | IC50 [1] [µM] | SMILES |
| --- | --- | --- | --- |
| < 0.1 |  | < 5 | Cc1cc(-c2cc(Cl)ccc2OCCn2c(C)nc3c(c2=O)CC(N2CCC(OC(F)(F)F)CC2)CC3(C)C)c2scc(C(=O)O)c2n1 (single isomer, unassigned) [Compound 443, 7-(5-chloro-2-(2-(2,8,8-trimethyl-4-oxo-6-(4-(trifluoromethoxy)piperidin-1-yl)-5,6,7,8-tetrahydroquinazolin-3(4H)-yl)ethoxy)phenyl)-5-methylthieno[3,2-b]pyridine-3-carboxylic acid] |
| < 0.1 | < 5 |  | Cc1cc(-c2cc(Cl)ccc2OCCn2c(C)nc3c(c2=O)C[C@H](N2CCC(c4ncccc4F)CC2)CC3)c2scc(C(=O)O)c2n1 (single isomer, unassigned) [Compound 444] |
| < 0.1 | < 5 |  | Cc1cc(-c2cc(Cl)ccc2OCCn2c(C)nc3c(c2=O)C[C@@H](N2CCC(c4ncccc4F)CC2)CC3)c2scc(C(=O)O)c2n1 (single isomer, unassigned) [Compound 445] |
| < 0.1 | > 20 |  | Cc1cc(-c2cc(Cl)ccc2OCCn2c(C)nc3c(c2=O)C[C@@H](N2CCC[C@@H](c4ccn(C)n4)C2)CC3)c2scc(C(=O)O)c2n1 (single isomer, unassigned) [Compound 446] |
| < 0.1 | 5 to 20 |  | Cc1cc(-c2cc(Cl)ccc2OCCn2c(C)nc3c(c2=O)C[C@H](N2CCC[C@@H](c4ccn(C)n4)C2)CC3)c2scc(C(=O)O)c2n1 (single isomer, unassigned) [Compound 447] |
| < 0.1 | < 5 |  | Cc1cc(-c2cc(Cl)ccc2OCCn2c(C)nc3c(c2=O)C[C@@H](N2CCC[C@H](c4ccn(C)n4)C2)CC3)c2scc(C(=O)O)c2n1 (single isomer, unassigned) [Compound 448] |
| < 0.1 | < 5 |  | Cc1cc(-c2cc(Cl)ccc2OCCn2c(C)nc3c(c2=O)C[C@@H](N2CCC(c4noc5ccc(F)cc45)CC2)CC3)c2scc(C(=O)O)c2n1 (single isomer, unassigned) [Compound 449] |
| < 0.1 | < 5 |  | COC1(C(F)(F)F)CCN([C@@H]2CCc3nc(C)n(CCOc4ccc(Cl)cc4-c4cc(C)nc5c(C(=O)O)csc45)c(=O)c3C2)CC1 (single isomer, unassigned) [Compound 450] |
| < 0.1 | < 5 |  | COC1(C(F)(F)F)CCN([C@H]2CCc3nc(C)n(CCOc4ccc(Cl)cc4-c4cc(C)nc5c(C(=O)O)csc45)c(=O)c3C2)CC1 (single isomer, unassigned) [Compound 451] |
| < 0.1 | < 5 |  | Cc1cc(-c2cc(Cl)ccc2OCCn2c(C)nc3c(c2=O)C[C@H](N2CCC(COC(F)(F)F)CC2)CC3)c2scc(C(=O)O)c2n1 (single isomer, unassigned) [Compound 452] |
| < 0.1 | > 20 |  | Cc1cc(-c2cc(Cl)ccc2OCCn2c(C)nc3c(c2=O)C[C@H](N2CCC(c4ccn(C)n4)CC2)CC3)c2scc(C(=O)O)c2n1 (single isomer, unassigned) [Compound 453] |
| < 0.1 | < 5 |  | Cc1cc(-c2cc(Cl)ccc2OCCn2c(C)nc3c(c2=O)C[C@@H](N2CCC(c4ccn(C)n4)CC2)CC3)c2scc(C(=O)O)c2n1 (single isomer, unassigned) [Compound 454] |
| < 0.1 | < 5 |  | Cc1cc(-c2cc(Cl)ccc2OCCn2c(C)nc3c(c2=O)C[C@H](N2CCC(c4cncc(S(=O)(=O)NC(C)(C)C)c4)CC2)CC3)c2scc(C(=O)O)c2n1 (single isomer, unassigned) [Compound 455] |
| < 0.1 | 5 to 20 |  | Cc1cc(-c2cc(Cl)ccc2OCCn2c(C)nc3c(c2=O)C[C@@H](N2CCC(c4cncc(S(=O)(=O)NC(C)(C)C)c4)CC2)CC3)c2scc(C(=O)O)c2n1 (single isomer, unassigned) [Compound 456] |
| < 0.1 | < 5 |  | Cc1cc(-c2cc(Cl)ccc2OCCn2c(C)nc3c(c2=O)C[C@H](N2CCC[C@H](OC(F)(F)F)C2)CC3)c2scc(C(=O)O)c2n1 (single isomer, unassigned) [Compound 457] |
| < 0.1 | < 5 |  | Cc1cc(-c2cc(Cl)ccc2OCCn2c(C)nc3c(c2=O)C[C@@H](N2CCC[C@@H](OC(F)(F)F)C2)CC3)c2scc(C(=O)O)c2n1 (single isomer, unassigned) [Compound 458] |
| < 0.1 | 5 to 20 |  | Cc1cc(-c2cc(Cl)ccc2OCCn2c(C)nc3c(c2=O)CC(N2CCC(OC(F)(F)F)CC2)CC3)c2scc(C(=O)NS(=O)(=O)C(F)(F)F)c2n1 (single isomer, unassigned) [Compound 459] |
| < 0.1 | < 5 |  | Cc1cc(-c2cc(Cl)ccc2OCCn2c(C)nc3c(c2=O)C[C@H](N2CCC(c4ncco4)CC2)CC3)c2scc(C(=O)O)c2n1 (single isomer, unassigned) [Compound 460] |

Reference: patent publication US20240246918A1, “COMPOUNDS AND COMPOSITIONS AS EIF4E INHIBITORS AND THE USES THEREOF” (Ribometrix, Inc., priority 2022, published 2024)
